According to article PMC7836013, “Characterization of Formononetin Sulfonation in SULT1A3 Overexpressing HKE293 Cells: Involvement of Multidrug Resistance-Associated Protein 4 in Excretion of Sulfate” (Frontiers in Pharmacology, 2021):
Counter-ions that a name gives are not always drawn.

Columns and labels:
MRP4 [1] = target: T1, MRP4 (Homo sapiens, UniProt O15439); test: Effect of shRNA-mediated MRP4 knockdown on formononetin disposition in HEK-SULT1A3 cells; format: cell-based; settings: shMRP4 vs scramble, formononetin 2.5 and 10 μM
T1 construct: MRP4 was the only expressed MRPs family transporter in HEK-SULT1A3 cells; endogenous in cells; host or cells: HEK-SULT1A3 cells (HEK293 stably expressing SULT1A3)
T1 sequence (O15439 1-1325): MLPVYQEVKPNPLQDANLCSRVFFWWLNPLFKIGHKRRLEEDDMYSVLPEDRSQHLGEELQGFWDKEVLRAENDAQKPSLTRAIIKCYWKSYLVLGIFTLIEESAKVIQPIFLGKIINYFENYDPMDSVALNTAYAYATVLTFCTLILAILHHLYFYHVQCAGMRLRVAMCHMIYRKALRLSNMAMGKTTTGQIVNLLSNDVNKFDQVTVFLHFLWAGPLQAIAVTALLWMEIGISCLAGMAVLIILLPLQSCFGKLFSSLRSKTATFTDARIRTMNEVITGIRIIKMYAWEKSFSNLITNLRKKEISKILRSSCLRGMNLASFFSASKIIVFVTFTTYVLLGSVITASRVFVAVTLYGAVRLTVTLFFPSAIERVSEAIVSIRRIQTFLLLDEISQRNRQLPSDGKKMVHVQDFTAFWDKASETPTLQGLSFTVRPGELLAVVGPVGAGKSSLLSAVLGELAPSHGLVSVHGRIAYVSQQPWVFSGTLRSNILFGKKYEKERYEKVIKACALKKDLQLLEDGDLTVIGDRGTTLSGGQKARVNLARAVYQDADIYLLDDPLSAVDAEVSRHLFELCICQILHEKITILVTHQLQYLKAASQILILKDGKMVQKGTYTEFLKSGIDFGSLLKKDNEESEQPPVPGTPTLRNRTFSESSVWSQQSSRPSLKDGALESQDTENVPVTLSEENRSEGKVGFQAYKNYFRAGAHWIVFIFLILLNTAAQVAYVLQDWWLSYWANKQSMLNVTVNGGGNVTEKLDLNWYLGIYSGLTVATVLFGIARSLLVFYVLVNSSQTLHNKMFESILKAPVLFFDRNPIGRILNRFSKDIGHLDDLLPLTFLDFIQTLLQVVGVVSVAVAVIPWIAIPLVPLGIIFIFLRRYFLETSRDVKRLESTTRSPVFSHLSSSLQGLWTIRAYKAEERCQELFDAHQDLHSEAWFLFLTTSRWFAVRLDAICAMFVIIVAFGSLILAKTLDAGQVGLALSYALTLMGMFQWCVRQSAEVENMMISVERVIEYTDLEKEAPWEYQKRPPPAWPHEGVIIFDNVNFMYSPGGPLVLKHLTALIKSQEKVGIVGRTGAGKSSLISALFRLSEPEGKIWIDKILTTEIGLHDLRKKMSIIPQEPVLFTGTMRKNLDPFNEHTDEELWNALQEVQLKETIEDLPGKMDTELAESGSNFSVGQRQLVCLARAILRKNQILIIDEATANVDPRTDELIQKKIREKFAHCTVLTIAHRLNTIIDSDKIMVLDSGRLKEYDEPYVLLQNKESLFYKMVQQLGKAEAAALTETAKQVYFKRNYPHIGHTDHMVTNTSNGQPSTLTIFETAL
Protocol: The sulfate excretion experiments were conducted using HEK-SULT1A3 cells model. In brief, HEK-SULT1A3 cells were washed with Hank's Balanced Salt Solution (HBSS) buffer (37°C, pH = 7.2) for three times. Then the cells were incubated with 2 ml HBSS buffer containing different concentrations of formononetin (final concentrations of 2.5 μM or 10 μM) at 37°C. 200 μL of incubation medium was sampled from each well at various times (0.5, 1.0, 1.5, and 2.0 h). Meanwhile, 200 μL of dosing solution was added immediately. The extracted samples were mixed with 100 μL ice-cold acetonitrile and vortexed for 1 min. The supernatant after centrifugation (15,000 g; 15 min) was injected into HPLC for analysis. After the last samples were taken, cells were collected into 400 μL ice-cold MeOH:H2O (1:1, v/v) and processed to measure the intracellular amount of formononetin sulfate. The excretion rate (ER) of intracellular sulfate was calculated exactly as described in our publications (Liu et al., 2018). The apparent efflux clearance (CLef,app) was derived as the excretion rate divided by the intracellular concentration of sulfate (Ci). Ci was determined by dividing intracellular amount of sulfate at 2 h by intracellular volume. The intracellular volume of HEK293 cells was measured using sulfanilamide as described ([Zhou et al., 2015]). […] Further, the fraction of dose metabolized (fmet), an indicator of the extent of drug sulfonation, was calculated according to Eq. 2. fmet=excreted sulfate+intracellular sulfate/total dosed aglycone (2) The cells were collected and lysed in RIPA Lysis Buffer (Beyotime, Shanghai) in advance. After quantified using BCA protein assay kit (Thermo Scientific, Waltham, Massachusetts), the cells samples or individual human intestine S9 fractions were analyzed by sodium dodecyl sulfate polyacrylamide gel electrophoresis (10% acrylamide gels) and transferred to polyvinylidene fluoride membranes ([…], Millipore, Bedford, MA). […] And then the protein bands were scanned in grayscale and subjected to semiquantitative analysis using Quantity One software.

MRP4 [2] = target: T1, MRP4; test: Effect of MK-571 on formononetin sulfate excretion in HEK-SULT1A3 cells; format: cell-based
Protocol: The sulfate excretion experiments were conducted using HEK-SULT1A3 cells model. In brief, HEK-SULT1A3 cells were washed with Hank's Balanced Salt Solution (HBSS) buffer (37°C, pH = 7.2) for three times. Then the cells were incubated with 2 ml HBSS buffer containing different concentrations of formononetin (final concentrations of 2.5 μM or 10 μM) at 37°C. 200 μL of incubation medium was sampled from each well at various times (0.5, 1.0, 1.5, and 2.0 h). Meanwhile, 200 μL of dosing solution was added immediately. The extracted samples were mixed with 100 μL ice-cold acetonitrile and vortexed for 1 min. The supernatant after centrifugation (15,000 g; 15 min) was injected into HPLC for analysis. After the last samples were taken, cells were collected into 400 μL ice-cold MeOH:H2O (1:1, v/v) and processed to measure the intracellular amount of formononetin sulfate. The excretion rate (ER) of intracellular sulfate was calculated exactly as described in our publications (Liu et al., 2018). The apparent efflux clearance (CLef,app) was derived as the excretion rate divided by the intracellular concentration of sulfate (Ci). Ci was determined by dividing intracellular amount of sulfate at 2 h by intracellular volume. The intracellular volume of HEK293 cells was measured using sulfanilamide as described ([Zhou et al., 2015]).

HEK-SULT1A3 cell lysate [3] = target: T2, HEK-SULT1A3 cell lysate (Homo sapiens, UniProt P0DMM9); test: Effect of chemical inhibitors on formononetin sulfonation in HEK-SULT1A3 cell lysate; format: in vitro ADME; settings: inhibitor 5–20 μM, formononetin 2.5 and 10 μM, p > 0.05
T2 construct: expressed in transfected cells; cell lysate used

HEK-SULT1A3 cell lysate [4] = target: T2, HEK-SULT1A3 cell lysate; test: Formononetin sulfonation enzyme kinetics in HEK-SULT1A3 cell lysate; format: in vitro ADME; settings: Michaelis-Menten, mean ± SD (n = 3)
Protocol: Enzyme kinetic of formononetin incubated with recombinant human SULT1A3 enzyme (rSULT1A3) was evaluated. The reaction was activated after the coenzyme PAPS (which provides sulfonate group to the substrates) was added. The incubation reaction was conducted in 200 μL potassium phosphate buffer (50 mM, pH 7.4) at 37°C, containing SULT1A3 enzyme (0.1 mg/ml), formononetin (0.16–40 μM), and PAPS (a final concentration of 0.10 mM). After incubation for 120 min, the reaction was terminated by adding 100 μL ice-cold acetonitrile. Then the samples were vortexed and centrifuged at 15,000 g for 15 min. The supernatant was analyzed by HPLC for sulfate quantification. All incubations were performed in triplicate. Preliminary experiments were performed to ensure that the rates of sulfation were determined under linear conditions with respect to incubation time and protein concentration.
The sulfonation rates of formononetin at different concentrations were determined according to the sulfonation assay protocol. […] The intrinsic clearance (CLint) was calculated by Vmax/Km.
Quantification of formononetin sulfate was performed using Agilent 1,260 Infinity II HPLC system with a ZORBAX SB-C18 column (4.6 × 250 mm, 5 μm; Agilent). […] The samples were analyzed using a gradient of ammonium acetate (2.5 mM) in water (mobile phase A) vs. acetonitrile (mobile phase B) at a flow rate of 1.0 ml/min. […]

[5] = set-up: method as in Singh and Wahajuddin, 2011; settings: ref Singh and Wahajuddin, 2011; cited from earlier work
[6] = MK-571 5–20 μM, formononetin 2.5 μM, p < 0.001
[7] = MK-571 5–20 μM, formononetin 10 μM, p < 0.001

T2 sequence (P0DMM9 whole entry): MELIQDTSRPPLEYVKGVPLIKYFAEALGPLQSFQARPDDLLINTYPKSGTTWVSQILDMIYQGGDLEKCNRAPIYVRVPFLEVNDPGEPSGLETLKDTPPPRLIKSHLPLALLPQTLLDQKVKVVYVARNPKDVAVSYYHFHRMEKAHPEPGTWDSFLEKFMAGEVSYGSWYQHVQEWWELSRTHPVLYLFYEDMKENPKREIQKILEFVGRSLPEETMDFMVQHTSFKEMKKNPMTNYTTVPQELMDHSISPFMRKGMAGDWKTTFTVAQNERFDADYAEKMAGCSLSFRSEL

With `COc1ccc(-c2coc3cc(OS(=O)(=O)O)ccc3c2=O)cc1` [F-O-S, formononetin sulfate] the “Decrease in CLef,app of F-O-S on MRP4 knockdown” value (MRP4 [1]; p < 0.01) was over 50.6%, the “Reduction in sulfate excretion rates on MRP4 knockdown” value (MRP4 [1]; p < 0.01) was over 32.8% and the “Elevation in intracellular amounts of F-O-S on MRP4 knockdown” value (MRP4 [1]; p < 0.05) was over 127.4%.
For `CN(C)C(=O)CCSC(SCCC(=O)O)c1cccc(/C=C/c2ccc3ccc(Cl)cc3n2)c1` (stereo not drawn) [MK-571], the “Decrease of CLef,app of F-O-S” value (MRP4 [2]; [6]) was 85.3%–98.0%, the “Reduction in excretion of F-O-S” value (MRP4 [2]; [6]) was 79.1%–94.6% and the “Decrease of excretion rates of F-O-S” value (MRP4 [2]; [7]) was 79.8%–95.7%. The “Increase of intracellular level of F-O-S” value (MRP4 [2]; [7]) was 160.6%–188.8%, the “Reduction of CLef,app of F-O-S” value (MRP4 [2]; [7]) was 87.3%–97.7% and the “Suppression of excretion of formononetin sulfate” value (MRP4 [2]; MK-571 at 20 μM) was over 94%. For the same compound, the “Effect of inhibitor on formononetin sulfonation (generation of F-O-S)” value (HEK-SULT1A3 cell lysate [3]) was “did not alter”.
For `COc1ccc(-c2coc3cc(O)ccc3c2=O)cc1` [formononetin, Formononetin], the “Vmax of formononetin sulfonation” value (HEK-SULT1A3 cell lysate [4]) is listed as 13.94 ± 0.83 pmol/min/mg and the “Bioavailability of unchanged formononetin” value [5] is listed as “approximately 3%”.
